“And” between values parts separate entries of the source, which are not always exact repeats. Equal values may be shown once.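 96-well plates; 48 h exposure; 5 concentrations. Endpoints by linear interpolation between flanking doses. Not reached: highest tested concentration assigned. GI50 is the concentration that inhibits growth by half. TGI is the concentration that stops growth completely.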
Legend:
Assay in all cases: DTP human tumour cell line panel, 48 h
[1] = tested on: COLO 205 colon
[2] = tested on: HCC-2998 colon
[3] = tested on: HL-60(TB) leukemia
[4] = tested on: LOX IMVI melanoma
[5] = tested on: MCF7 breast
[6] = tested on: MOLT-4 leukemia
[7] = tested on: PC-3 prostate
[8] = tested on: SF-295 CNS
[9] = tested on: SF-539 CNS
[10] = tested on: SK-OV-3 ovarian

Compound | GI50 [1] [µM] | TGI [1] | TGI [2] [µM] | GI50 [3] [µM] | TGI [3] | TGI [4] [µM] | GI50 [5] [µM] | TGI [5] | GI50 [6] [µM] | TGI [6] | GI50 [7] [µM] | TGI [7] | TGI [8] | TGI [9] [µM] | GI50 [10] [µM] | TGI [10] | GI50 [2] [µM] | GI50 [4] [µM] | GI50 [8] [µM] | GI50 [9] [µM]
O=C1/C(=C/c2ccc(O)c([N+](=O)[O-])c2)CCC/C1=C\c1ccc(O)c([N+](=O)[O-])c1 | 20.8 | 31.9 µM and 40.6 µM | 16 | 16.7 | 50 µM and 45.1 µM | 23.2 | 15.8 | 50 µM and 63 µM | 17.4 | 50 µM and 47 µM | 9.12 | 50 µM and 22.8 µM | 50 µM and > 100 µM | 50 | 22.2 | 50 µM and > 100 µM |  |  |  | 
FC(F)(F)c1cccc(COCCN2CCN(Cc3cccc(C(F)(F)F)c3)CC2)c1 |  | 42.3 µM | 32.7 |  | > 100 µM |  |  | 31.7 µM |  | 41.9 µM |  | 21.7 µM | 37.5 µM | 39 |  | 31.1 µM |  |  |  | 
CC([C@H]1CCC2C3CCC4C[C@@H](NC=O)CC[C@]4(C)C3CC[C@@]21C)N(C)C (some centres undefined) | 1.54 | 3.11 µM | 7.29 | 2.23 | 6.79 µM | 3.37 | 2.06 | 7.26 µM | 1.84 | 8.71 µM | 2.47 | 16.4 µM | 5.58 µM | 2.79 | 3.96 | 13.5 µM | 2.48 | 1.53 | 2.14 | 1.37
CC(C)(C)C(=O)Nc1ccccc1I(=O)=O | > 100 | > 100 µM | > 100 | > 100 | > 100 µM | > 100 | > 100 | > 100 µM | > 100 | > 100 µM | > 100 | > 100 µM | > 100 µM | > 100 | > 100 | > 100 µM | > 100 | > 100 | > 100 | > 100
COc1cc(Cl)cc(-c2nn(C(=O)NCCN3CCN(C)CC3)cc2-c2ccncc2)c1 | 9.86 | 60.9 µM | 39.1 | 25.6 | 75.8 µM | 46.2 | 29.4 | > 100 µM | 29.4 | > 100 µM | 19.5 | > 100 µM | 46.6 µM | 22.6 | 5.44 | 28.8 µM | 17.5 | 18 | 7.73 | 2.84
O=C(Nc1ccc(-n2cc(-c3ccncc3)c(-c3ccc(Cl)c(O)c3)n2)cc1)Nc1cc(C(F)(F)F)cc(C(F)(F)F)c1 | 1.2 | 2.81 µM | 3.37 | 2.94 | 8.84 µM | 3.02 | 2.58 | 8.15 µM | 1.95 | 7.37 µM | 2.05 | 6.1 µM | 3.08 µM | 6.4 | 2.13 | 5.43 µM | 1.79 | 1.63 | 1.47 | 1.94
Cc1ccccc1C(=O)C#Cc1cn(C2CC(O)C(CO)O2)c(=O)[nH]c1=O (centres undefined) |  | > 100 µM | > 100 |  | > 100 µM |  |  | > 100 µM |  | 92.5 µM |  | > 100 µM | > 100 µM | > 100 |  | > 100 µM |  |  |  | 
N#CC1=C(N)OC2=C(COc3ccc(F)cc32)C1c1ccc(Cl)cc1 (centres undefined) |  |  | 60.2 | 33.5 | 86 µM | > 100 | 30.3 | > 100 µM | 44.7 | > 100 µM | 32.3 | > 100 µM | 78.3 µM | 81.6 | 53.1 | > 100 µM | 25.6 | 35.1 | 19.6 | 29.5
N#Cc1ccccc1NC(=O)/C(=N\NC(=O)c1ccncc1)C(c1cnc2ccc([N+](=O)[O-])cc2n1)[N+](=O)[O-] (centres undefined) |  |  | > 100 |  | > 100 µM | > 100 |  | > 100 µM |  | > 100 µM |  | > 100 µM | > 100 µM | > 100 |  | > 100 µM |  |  |  | 
N#CC1=C(N)NC(=S)NC12Nc1ccccc1O2 (centres undefined) | 28.1 | > 100 µM |  | 17.2 | > 100 µM | 50.4 | 27.2 | > 100 µM | 3.72 | > 100 µM | 28.6 | > 100 µM | > 100 µM | > 100 | 37.9 | > 100 µM |  | 20.2 | 38.4 | 45.8
